Laboratory results: paper PMC10803810, “Interaction of designed cationic antimicrobial peptides with the outer membrane of gram-negative bacteria” (Scientific Reports, 2024)

Columns and labels:
[1] = system: MDR P. aeruginosa clinical isolate 004B1-3; assay: Minimum inhibitory concentration (MIC) assay; assay type: cell-based, Pseudomonas aeruginosa; details: MHB, 10^5 CFU/well, peptide 0-50 μM, 37 °C, 20 h, OD600; average of n = 6 replicates from N = 3 biological experiments; asterisk = beyond 50 μM
Description: (§1) Figure 1 Minimum inhibitory concentrations (MICs) for the present peptide library against three clinical isolates of MDR P. aeruginosa and a laboratory strain of B. subtilis. Increasing concentrations of peptides were independently incubated with bacterial cells for 20 h. MIC was calculated based on bacterial growth in an untreated control and in 1% Triton. Data represent the average from n = 6 replicates from N = 3 biological experiments performed on different days; error bars depict the standard error of the mean. Asterisk denotes MIC values beyond the highest tested concentration (50 μM). TEXT PRINTED IN THE PICTURE: Ponericin W1: Isolate 004B1-3 MIC (μM): 1.17; Isolate 035B7-1 MIC (μM): 2.86; Isolate 014B2-1 MIC (μM): 4.68; B. subtilis MIC (μM): 0.65 | PonAmp: Isolate 004B1-3 MIC (μM): 1.56; Isolate 035B7-1 MIC (μM): 2.60; Isolate 014B2-1 MIC (μM): 3.12; B. subtilis MIC (μM): 0.52 | PonN: Isolate 004B1-3 MIC (μM): 1.56; Isolate 035B7-1 MIC (μM): 2.60; Isolate 014B2-1 MIC (μM): 5.20; B. subtilis MIC (μM): 1.56 | PonC: Isolate 004B1-3 MIC (μM): 1.30; Isolate 035B7-1 MIC (μM): 1.56; Isolate 014B2-1 MIC (μM): 2.86; B. subtilis MIC (μM): 1.30 | PonAmp 2A: Isolate 004B1-3 MIC (μM): 11.46; Isolate 035B7-1 MIC (μM): 50; Isolate 014B2-1 MIC (μM): 50; B. subtilis MIC (μM): 0.85 | PonN 2A: Isolate 004B1-3 MIC (μM): 1.82; Isolate 035B7-1 MIC (μM): 1.82; Isolate 014B2-1 MIC (μM): 5.20; B. subtilis MIC (μM): 2.08 | PonC 2A: Isolate 004B1-3 MIC (μM): 2.08; Isolate 035B7-1 MIC (μM): 3.64; Isolate 014B2-1 MIC (μM): 6.25; B. subtilis MIC (μM): 1.04 | PonAmp 3A: B. subtilis MIC (μM): 0.78 | PonN 3A: Isolate 004B1-3 MIC (μM): 4.69; Isolate 035B7-1 MIC (μM): 16.67; Isolate 014B2-1 MIC (μM): 23; B. subtilis MIC (μM): 8.30 | PonC 3A: Isolate 004B1-3 MIC (μM): 5.73; Isolate 035B7-1 MIC (μM): 33.33; Isolate 014B2-1 MIC (μM): 50; B. subtilis MIC (μM): 1.56 | PonAmp 4A: B. subtilis MIC (μM): 3.12 | PonN 4A: B. subtilis MIC (μM): 12.5 | PonC 4A: B. subtilis MIC (μM): 10.42
(§2) Clinical isolates of P. aeruginosa [Research Ethics Board (REB) #1000019444] were obtained with informed consent from CF patients with chronic infection followed at the Hospital for Sick Children (Toronto, Canada)[66]. Consent was obtained from a parent or legal guardian if not of age. All methods were performed in accordance with the relevant guidelines and regulations for research involving human subjects at the Hospital for Sick Children. Antimicrobial susceptibility testing was performed as per the Clinical Laboratory Standards Institute (CLSI)[67].
(§3) Three clinical isolates of MDR P. aeruginosa were previously obtained from CF patients with chronic infection at the Hospital for Sick Children [Research Ethics Board (REB) #1000019444] (Toronto, Canada) and selected for use in this work along with a laboratory strain of B. subtilis. Serial dilutions of peptides (10 μL) were prepared to achieve concentrations from 50 to 0 μM on a sterile 96-well clear bottom plate. Cells were resuspended in Mueller − Hinton Broth (MHB) and added at 10^5 CFU/well to achieve a final volume of 100 μL. Peptide and bacteria were allowed to incubate at 37 °C for 20 h. OD600 was measured at the end of the incubation period. Reports of MIC are background subtracted from an MHB-only control.

[2] = system: MDR P. aeruginosa clinical isolate 035B7-1; assay: Minimum inhibitory concentration (MIC) assay; assay type: cell-based, Pseudomonas aeruginosa; details: MHB, 10^5 CFU/well, peptide 0-50 μM, 37 °C, 20 h, OD600; average of n = 6 replicates from N = 3 biological experiments; asterisk = beyond 50 μM
Description: as §1, §2, §3

[3] = system: MDR P. aeruginosa clinical isolate 014B2-1; assay: Minimum inhibitory concentration (MIC) assay; assay type: cell-based, Pseudomonas aeruginosa; details: MHB, 10^5 CFU/well, peptide 0-50 μM, 37 °C, 20 h, OD600; average of n = 6 replicates from N = 3 biological experiments; asterisk = beyond 50 μM
Description: as §1, §2, §3

[4] = system: MDR isolates of P. aeruginosa; assay type: cell-based, Pseudomonas aeruginosa; details: for average MIC against MDR P. aeruginosa isolates: average over the clinical isolates
From the text: We began our investigations by testing the antimicrobial efficacy of our peptide library against P. aeruginosa, an opportunistic gram-negative bacterium found in patients with cystic fibrosis (CF)[44],[45]. MDR isolates of P. aeruginosa obtained from chronically infected CF patients were independently challenged with the peptide library using a minimum inhibitory concentration assay (MIC, defined as the lowest drug concentration required to inhibit bacterial growth). […] A similar trend is observed among the 3A analogs. At four Leu-to-Ala substitutions, activity is universally lost as the sequences no longer meet the minimum hydrophobicity threshold for spontaneous membrane insertion.
Figure 1 Minimum inhibitory concentrations (MICs) for the present peptide library against three clinical isolates of MDR P. aeruginosa and a laboratory strain of B. subtilis. Increasing concentrations of peptides were independently incubated with bacterial cells for 20 h. MIC was calculated based on bacterial growth in an untreated control and in 1% Triton. Data represent the average from n = 6 replicates from N = 3 biological experiments performed on different days; error bars depict the standard error of the mean. Asterisk denotes MIC values beyond the highest tested concentration (50 μM). […]
Three clinical isolates of MDR P. aeruginosa were previously obtained from CF patients with chronic infection at the Hospital for Sick Children [Research Ethics Board (REB) #1000019444] […] OD600 was measured at the end of the incubation period. […]

[5] = system: laboratory strain of B. subtilis; assay: Minimum inhibitory concentration (MIC) assay; assay type: cell-based, Bacillus subtilis; details: MHB, 10^5 CFU/well, peptide 0-50 μM, 37 °C, 20 h, OD600; average of n = 6 replicates from N = 3 biological experiments
Description: as §1, §3

[6] = system: LPS from P. aeruginosa 10; assay: Dansyl-polymyxin (DPX) displacement assay; assay type: binding, Pseudomonas aeruginosa; details: 3 μg/mL LPS saturated by 2.5 μM DPX, peptide added in 1 μM increments up to 10 μM, 10 mM Tris 10 mM NaCl pH 7.4; ex 340 / em 485 nm; n = 3
From the text: We then sought to evaluate whether the relative trends in antimicrobial efficacy observed between Lys-clustered versus helical amphipathic sequences against gram-negative bacteria correlate to their degree of interaction with the OM. In doing so, we tested the binding affinity of our peptide library to LPS using a Dansyl-Polymyxin (DPX) displacement assay. DPX is a fluorescently-tagged derivative of Polymyxin B that highly associates with polyanionic sites on LPS[46]. Dansyl fluorescence reaches a maximum when surrounded by a hydrophobic environment (ex. lipid A moiety of LPS), thereby enabling us to track bound and unbound states of the LPS-DPX complex. First, we empirically determined the concentration of DPX required to completely saturate a set quantity of LPS in solution (Fig. 2). Upon identifying the saturation threshold, we assessed the ability of our peptide library to outcompete for LPS binding by displacing bound DPX. […] High sequence hydrophobicity is observed to supplement peptide propensity to displace DPX as the binding affinity of PonN and PonC to LPS progressively weakens with increasing Leu-to-Ala substitutions (Fig. 3b–d).
Lyophilized stocks of LPS from P. aeruginosa 10 (#L9143) and Dansyl-labelled polymyxin B (DPX) suspended in water (#SBR00029) were purchased from Sigma. 1 mg/mL LPS was prepared in water and stored at 4 °C until use. As described in detail elsewhere, saturation of the LPS-DPX complex was first determined on a Photon Technology International fluorometer using a 1 cm cuvette. Stepwise additions of DPX (in 0.25 μM increments up to 5 μM) was added to 3 μg/mL LPS suspended in 10 mM Tris 10 mM NaCl buffer at pH 7.4. DPX fluorescence was excited at 340 nm (2 nm slit width) and emission was recorded at 485 nm (5 nm slit width).
To measure DPX displacement, peptides were independently added at 1 μM increments (up to 10 μM) to preparations containing 3 μg/mL LPS saturated by 2.5 μM DPX. DPX fluorescence was read immediately upon peptide addition. Drops in fluorescence are interpreted as the removal of DPX from LPS due to competitive binding by peptide.

human red blood cells = details: up to 50 μM; cited from earlier work
From the text: In designing the Ponericin peptide library, our principal goal is to gauge systematically how the relative distribution of charged residues influences peptide-membrane interactions. As well, hydrophobicity is of particular interest to our investigations as earlier studies on the Ponericin W1 library reveal the highly toxic nature of native Ponericin W1 against mammalian red blood cells. Thus, stepwise Leu-to-Ala substitutions (up to four substitutions) were subsequently applied to each parent analog to simultaneously evaluate the contribution of overall sequence hydrophobicity. All peptide ...

[7] = in vitro dye release; cited from earlier work
From the text: In contrast, Lys-clustered PonN and PonC have been previously found to exclusively adopt random coils when exposed to liposomes composed of an approximate 3:1 ratio of PE:PG phospholipids, representative of the bacterial IM[37]. The latter configuration ostensibly deters peptide capacity for pore formation and/or carpeted assembly compared to helical amphipathic constructs such as PonAmp, which continues to display high helical propensity at both membrane interfaces. The comparatively shallow and/or transient nature of interaction between Lys-clustered constructs and the IM interface was f ...

| Substance | MIC, Isolate 004B1-3 [1] [µM] | MIC, Isolate 035B7-1 [2] [µM] | MIC, Isolate 014B2-1 [3] [µM] | MIC against MDR P. aeruginosa isolates ([4]; three clinical isolates from CF patients, isolate not specified, 20 h, highest tested 50 μM) [µM] | MIC, B. subtilis [5] [µM] | average MIC against MDR P. aeruginosa isolates [4] | Displacement of DPX from LPS (change in DPX fluorescence) [6] | Toxicity against mammalian red blood cells (human red blood cells) | Rupture of liposome mimetics of the bacterial IM (dye release) [7] |
| --- | --- | --- | --- | --- | --- | --- | --- | --- | --- |
| H-WAKKAAKIGAKLLPSVVKLFKGSGQ-NH2 [PonAmp 2A] | 11.46 | 50 | 50 | 50 | 0.85 |  |  |  |  |
| H-KKKKKKWAGSAAIGAALPSVVGLFQ-NH2 [PonN 3A] | 4.69 | 16.67 | 23 |  | 8.30 |  |  |  |  |
| H-WAGSAAIGALLPSVVGLFQKKKKKK-NH2 [PonC 2A] | 2.08 | 3.64 | 6.25 |  | 1.04 | ~ 4 μM |  |  |  |
| H-WLGSALKIGAKLLPSVVGLFKKKKQ-NH2 [Ponericin W1, reference compound] | 1.17 | 2.86 | 4.68 |  | 0.65 |  | negligible change in fluorescence | highly toxic |  |
| H-KKKKKKWAGSAAIGALLPSVVGLFQ-NH2 [PonN 2A] | 1.82 | 1.82 | 5.20 |  | 2.08 | ~ 3 μM |  |  |  |
| H-WAGSAAIGAALPSVVGAFQKKKKKK-NH2 [PonC 4A] |  |  |  |  | 10.42 |  |  |  |  |
| H-WAGSAAIGAALPSVVGLFQKKKKKK-NH2 [PonC 3A] | 5.73 | 33.33 | 50 |  | 1.56 |  |  |  |  |
| H-KKKKKKWAGSAAIGAALPSVVGAFQ-NH2 [PonN 4A] |  |  |  |  | 12.5 |  |  |  |  |
| H-WLKKALKIGAKLLPSVVKLFKGSGQ-NH2 [PonAmp] | 1.56 | 2.60 | 3.12 |  | 0.52 |  | negligible change in fluorescence |  | ruptured instantaneously |
| H-WAKKAAKIGAKALPSVVKAFKGSGQ-NH2 [PonAmp 4A] |  |  |  |  | 3.12 |  |  |  |  |
| H-WLGSALIGALLPSVVGLFQKKKKKK-NH2 [PonC] | 1.30 | 1.56 | 2.86 |  | 1.30 |  | highly interrupt the LPS-DPX complex |  | more gradually |
| H-KKKKKKWLGSALIGALLPSVVGLFQ-NH2 [PonN] | 1.56 | 2.60 | 5.20 |  | 1.56 |  | highly interrupt the LPS-DPX complex |  | more gradually |
| H-WAKKAAKIGAKALPSVVKLFKGSGQ-NH2 [PonAmp 3A] |  |  |  |  | 0.78 |  |  |  |  |
